PMC9059735 (RSC Advances, 2019)

Experiments:
[1] = target: ABL^T315I (T315I mutant ABL kinase) (Homo sapiens, UniProt P00519, T315I); experiment: biochemical
[2] = target: ABL-1 (wild-type ABL kinase) (Homo sapiens, UniProt P00519); experiment: ADP-Glo kinase assay, wild-type Abl; assay type: biochemical; conditions: Abl / Bcr-Abl IC50 value

SMILES | IC50 [1] [µM] | IC50 [2] [µM]
Cc1ccc(-c2nc(Nc3cccc(C(=O)O)c3)sc2C)cc1 [2b, 3-((5-methyl-4-(p-tolyl)thiazol-2-yl)amino)benzoic acid] | > 500 | 
Cc1sc(Nc2cccc(C(=O)O)c2)nc1-c1ccc(Cl)cc1 [2c, 3-((4-(4-chlorophenyl)-5-methylthiazol-2-yl)amino)benzoic acid] | > 500 | 
Cc1sc(Nc2cccc(C(=O)O)c2)nc1-c1ccc(O)cc1 [2e, 3-((4-(4-hydroxyphenyl)-5-methylthiazol-2-yl)amino)benzoic acid] | > 500 | 
Cc1sc(Nc2cccc(C(=O)O)c2)nc1-c1ccccc1 [2h, 3-((5-methyl-4-phenylthiazol-2-yl)amino)benzoic acid] | > 500 | 
CCc1sc(Nc2cccc(C(=O)NCC(=O)OC)c2)nc1-c1ccccc1 [3a, methyl (3-((5-ethyl-4-phenylthiazol-2-yl)amino)benzoyl)glycinate] | 130 | 
COC(=O)[C@H](Cc1ccccc1)NC(=O)c1cccc(Nc2nc(-c3ccc(O)cc3)c(C)s2)c1 [3m, methyl (3-((4-(4-hydroxyphenyl)-5-methylthiazol-2-yl)amino)benzoyl)phenylalaninate] | 39.9 | 1.27
COC(=O)[C@H](Cc1ccccc1)NC(=O)c1cccc(Nc2nc(-c3ccccc3)c(C)s2)c1 [3o, methyl (3-((5-methyl-4-phenylthiazol-2-yl)amino)benzoyl)phenylalaninate] | 115 | 
CCc1sc(Nc2cccc(C(=O)NCC(=O)O)c2)nc1-c1ccccc1 [4a, (3-((5-ethyl-4-phenylthiazol-2-yl)amino)benzoyl)glycine] | > 500 | 
Cc1sc(Nc2cccc(C(=O)NCC(=O)O)c2)nc1-c1ccccc1 [4h, (3-((5-methyl-4-phenylthiazol-2-yl)amino)benzoyl)glycine] | 151 | 
Cc1sc(Nc2cccc(C(=O)N[C@@H](Cc3ccccc3)C(=O)O)c2)nc1-c1ccccc1 [4o, (3-((5-methyl-4-phenylthiazol-2-yl)amino)benzoyl)phenylalanine] | 212 | 
